Data on 4 molecules can be found in patent US4190675A (priority 1976, dated 1980).

As a reminder, the Inhibition is the relative decrease from the control value, in per cent. Higher therefore signals a strong effect. By inhibition is commonly meant the share of the control response that was lost under treatment. A word on the LD50: it is the dose expected to kill half of the subjects tested.

Data set [1] deals with rats. Briefly: Turpentine-induced pleuritis in rats (Hurley). As to conditions: for Exudate / Inhibition: P <0.01. The class given is in vivo.
The subject of another data set is Escherichia coli. Put plainly: Antibacterial activity (MIC), Escherichia coli. The class given is cell-based. The note with it: for MIC: read-out: Minimum Inhibiting Concentration (MIC); for antibacterial activity, grade (in words): Gram-negative germs.
Data set [2] concerns isolated Guinea-pig trachea. Put plainly: Relaxation of the isolated Guinea-pig trachea (Costantine). The class given is cell-based. As to conditions: for activation at 125 µg/mL: 125 μg/ml; for activation at 125 µg/mL / activation at 500 µg/mL / activation at 2000 µg/mL: average of 4 preparations; for activation at 500 µg/mL: 500 μg/ml; for activation at 2000 µg/mL: 2,000 μg/ml; for relaxation of the smooth tracheal muscles, intensity compared with Fraction 2 and sobrerol (in words): in vitro, isolated Guinea-pig trachea; for bronchodilating activity, grade (in words): overall, in vitro and in vivo.

The subject of data set [3] is rats. Briefly: Carrageenin-induced paw oedema in rats (Winter). The class given is in vivo, albino rats, COBS (Charles River) stock. The note with it: for % inhibition of plantar oedema / inhibition of carrageenin paw oedema compared with Fraction 2 and sobrerol (in words): 30 mg/kg b.w. intraperitoneally; for % inhibition of plantar oedema: after 4 hours, 6 animals. A general note: In the carrageenan paw model, swelling and tenderness develop within hours.

Another data set deals with Staphylococcus aureus. Briefly: Antibacterial activity (MIC), Staphylococcus aureus. The class given is cell-based. The note with it: for antibacterial activity, grade (in words): Gram-positive germs / overall; for antibacterial activity compared with Fraction 2 and sobrerol (in words): Staphylococcus aureus and Escherichia coli; for MIC: read-out: Minimum Inhibiting Concentration (MIC).

Another data set relates to thrombocyte aggregation. Put plainly: Inhibition of thrombocyte aggregation from ADP in vitro (Born and Cross). The class given is cell-based. As to conditions: for inhibition of thrombocyte aggregation compared with Fraction 2 and sobrerol (in words): 160 to 1,280 micrograms/ml, ADP, in vitro; for inhibition at 160 µg/mL: final concentration 160 μg/ml; for inhibition at 160 µg/mL / inhibition at 320 µg/mL / inhibition at 640 µg/mL / inhibition at 1280 µg/mL: average of repeated tests; for inhibition at 320 µg/mL: final concentration 320 μg/ml; for inhibition at 640 µg/mL: final concentration 640 μg/ml; for inhibition at 1280 µg/mL: final concentration 1280 μg/ml.

The subject of another data set is red blood cells of rats. Briefly: Protection of red blood cells from haemolysis induced by Tween 80, in vitro. The class given is cell-based. As to conditions: Rattus norvegicus, Erythrocyte, Tween 80. An excerpt: (fiducial limits 95% : 518.0-760.11).
Data set [4] concerns rabbits. Briefly: Inhibition of histamine-induced bronchospasm by intravenous perfusion in rabbits. The class given is in vivo. The note with it: for Percentage of inhibition of the histamine-induced bronchospasm: histamine 100 micrograms/kg i.v., average of 4 animals; for inhibition of histamine-induced bronchospasm compared with Fraction 2 and sobrerol (in words): perfused intravenously 2.5 mls per kg b.w. per minute.

A further data set has as its system dogs. Put plainly: Reduction of lung resistance in anesthetized dogs (Diamond). The class given is in vivo. The note with it: intravenous; for Percentage reduction of the Lung Resistance: average for 4 animals.
In data set [5] the test system is isolated Guinea-pig trachea. Briefly: Inhibition of histamine-induced contractions of the isolated Guinea-pig trachea. The class given is cell-based. The note with it: histamine 10^-5 M, average. The source says:
In addition, at concentrations in the range of from 10^-3 M to 5.10^-3 M, it inhibits the histamine-induced contractions of the isolated Guinea-pig trachea (Histamine 10^-5 M, see TABLE 3).

Another data set has as its system mice. The note with it: for Gleason classification: mice.
Data set [6] can be described thus: Acute toxicity in rabbits (LD50, Litchfield and Wilcoxon). The class given is in vivo. As to conditions: rabbit, in vivo, fiducial limits 95%.
Data set [7] deals with rabbits. The data set is described as above. The class given is in vivo.
A further data set is described as follows: in vivo. As to conditions: mouse, LD50, mice, fiducial limits 95%.
Setting [8] is: Cavia porcellus, read-out: Percentage of relaxation of the isolated Guinea-pig trachea.
The mark [9] stands for this setting: intravenous perfusion 15 minutes.
Setting [10] is: intravenous perfusion 30 minutes.
Where [11] appears, read: intravenous perfusion 60 minutes.
Where [12] appears, read: read-out: Thrombocyte aggregation % INHIBITION

Converted amounts (≈) assume the structure as drawn. “Also recorded” adds a separate entry of the source. Read-outs that look alike come from different tables or passages of the source.

On to `CC(=O)Oc1ccccc1C(=O)O` [Aspirin, aspirin, reference compound], for which, in the data set with rats [1] (100 mgs/kg intraperitoneal), the Exudate is listed as 1.30 mls and the Inhibition turned out to be 34%.

In the case of `CC1(C)C2CC=C(C=O)C1C2` (centres unmarked) [Myrtenal, myrtenal], the MIC in the data set on Escherichia coli (Escherichia coli) worked out at 800 µg/mL (≈ 5.33 mM). Moreover, the “antibacterial activity, grade (in words)” value in the data set on Escherichia coli is on record as “less intense on Gram-negative ones”. Further, in data set [2] (setting [8]), the activation at 125 µg/mL was determined as 7.5%, the activation at 500 µg/mL was 47.5% and the activation at 2000 µg/mL amounted to 62.5%. In addition, in data set [2], the “relaxation of the smooth tracheal muscles, intensity compared with Fraction 2 and sobrerol (in words)” value is “statistically higher than that of the Fraction 2 and that of sobrerol”; the “bronchodilating activity, grade (in words)” value is “fair bronchodilating activity”. Besides, the “% inhibition of plantar oedema” value with rats [3] is 30%. Further, the “anti-inflammatory action, grade (in words)” value with rats [3] (overall summary) is on record as “anti-inflammatory action of poor magnitude”. Besides, the “inhibition of carrageenin paw oedema compared with Fraction 2 and sobrerol (in words)” value in the data set with rats [3] (rats) was “more intense than that of Fraction 2 and also than that of sobrerol”. Further, in the data set with Staphylococcus aureus, the “antibacterial activity, grade (in words)” value is reported as “pronounced antibacterial activity on Gram-positive germs”; the “antibacterial activity compared with Fraction 2 and sobrerol (in words)” value was “more active both than Fraction 2 and sobrerol”. Further, in the data set on Staphylococcus aureus (listed as myrtenal), the “antibacterial activity, grade (in words)” value is recorded as “marked antibacterial action”. In addition, in the data set with Staphylococcus aureus (Staphylococcus aureus), the MIC worked out at 200 µg/mL (≈ 1.33 mM). In addition, in the data set on thrombocyte aggregation, the “inhibition of thrombocyte aggregation compared with Fraction 2 and sobrerol (in words)” value was “higher than those of Fraction 2 and sobrerol”; testing at 160 µg/mL gave an inhibition of 0%; 320 µg/mL produced 12% inhibition; testing at 640 µg/mL gave an inhibition of 20%. In the data set with thrombocyte aggregation, this molecule came in with an inhibition at 1280 µg/mL of 75%. Further, in the data set with red blood cells of rats (80 to 500 micrograms/ml, fiducial limits 95%=112.3-189.9, read-out: Effective Concentration 50%, protection from haemolysis), the EC50 worked out at 157 µg/mL (≈ 1.05 mM). Also, the “Percentage of inhibition of the histamine-induced bronchospasm” value in the data set on rabbits [4] (setting [9]) amounted to 25.4%. In addition, in the data set on rabbits [4] (setting [10]), the “Percentage of inhibition of the histamine-induced bronchospasm” value is 20.4%. The “Percentage of inhibition of the histamine-induced bronchospasm” value in the data set with rabbits [4] (setting [11]) was determined as 28.8%. For the same molecule, the “inhibition of histamine-induced bronchospasm compared with Fraction 2 and sobrerol (in words)” value in the data set on rabbits [4] was “statistically higher than that of sobrerol and slightly lower than that of Fraction 2”.

Consider `CC1=CCC(C(C)(C)O)CC1O` (centres unmarked) [Sobrerol, sobrerol, reference compound], for which the “Minimum Inhibiting Concentration (MIC)” value in the data set with Escherichia coli (Escherichia coli) is “.infin”. In addition, in data set [2] (setting [8]), the percent relaxation of trachea at 125 µg/mL amounted to 1.87%, the percent relaxation of trachea at 500 µg/mL came out at 5.62% and the percent relaxation of trachea at 2000 µg/mL was 20.8%. For the same molecule, the “% inhibition of plantar oedema” value in the data set with rats [3] was found to be 11%. Besides, in the data set with Staphylococcus aureus (Staphylococcus aureus), the “Minimum Inhibiting Concentration (MIC)” value is on record as “.infin”. Further, in the data set with thrombocyte aggregation (setting [12]), the inhibition at 1000 µg/mL was found to be 4%, the inhibition at 1500 µg/mL was determined as 12%, the inhibition at 2000 µg/mL was 24% and the inhibition at 4000 µg/mL stood at 32%. Moreover, the “Percentage of inhibition of the histamine-induced bronchospasm” value in the data set with rabbits [4] (setting [9]) was 2.15%. Moreover, in the data set with rabbits [4] (setting [10]), the “Percentage of inhibition of the histamine-induced bronchospasm” value is reported as 1.15%. For the same molecule, in the data set on rabbits [4] (setting [11]), the “Percentage of inhibition of the histamine-induced bronchospasm” value is recorded as 3.97%.

Consider `CC1=CC(=O)[C@@H]2C[C@H]1C2(C)C` [Verbenone, verbenone], for which the MIC in the data set on Escherichia coli (Escherichia coli) and in the data set with Staphylococcus aureus (Staphylococcus aureus) was 800 µg/mL (≈ 5.33 mM) throughout. Moreover, the “antibacterial activity, grade (in words)” value with Escherichia coli and in the data set with Staphylococcus aureus was “poor antibacterial activity” in each case. Further, the “Percentage reduction of the Lung Resistance” value in the data set with dogs (0.6 mgs/kg b.w.) was determined as 7.175%; in the data set with dogs (1.2 mgs/kg b.w.), 10.85%; with dogs (2.4 mgs/kg b.w.), 22.225%; with dogs (4.8 mgs/kg b.w.), 30.6%. The “reduction of the lung resistances (in words)” value in the data set with dogs (0.6 to 4.8 mgs/kg b.w.) is “pronounced reduction of the lung resistances”. Further, the activation at 125 µg/mL in [2] (setting [8]) came out at 26.2%. In data set [2] (setting [8]), the activation at 500 µg/mL was 61.2%. For the same molecule, the activation at 2000 µg/mL in data set [2] (setting [8]) worked out at 71.4%. Further, the “relaxation of the smooth tracheal muscles, intensity compared with Fraction 2 and sobrerol (in words)” value in [2] is “significantly higher than that of the terpenes of the fraction 2 and also than that of sobrerol”. For the same molecule, the “bronchodilating activity, grade (in words)” value in [2] is on record as “pronounced bronchodilating action; also recorded: pronounced bronchodilating activity”. In the data set on rats [1] (36 and 120 mg/kg b.w. intraperitoneally), the “antiexudative activity compared with aspirin (in words)” value is reported as “intense antiexudative activity in the experimental, turpentine-induced pleuritis (Hurley, J. V. et al., J. Path., 91, 575,1966) to a degree which can be compared to that of aspirin”. For the same molecule, the Exudate with rats [1] (36 mgs/kg intraperitoneal) amounted to 1.23 mls; in the data set with rats [1] (120 mgs/kg intraperitoneal) it was 0.97 mls. Besides, the Inhibition was determined as 37.6% in the data set on rats [1] (36 mgs/kg intraperitoneal) and 50.1% with rats [1] (120 mgs/kg intraperitoneal). Moreover, the “% inhibition of plantar oedema” value in the data set with rats [3] was 29%. The “inhibition of carrageenin paw oedema compared with Fraction 2 and sobrerol (in words)” value in the data set with rats [3] (normal and suprarenalectomized rats) was “significantly improved over those of the fraction 2 and of sobrerol”. The “Percentage of inhibition of the histaminic spasm due to relaxation of the smooth tracheal muscles” value in data set [5] (5.10^-3 M) was found to be 96.8%. For the same molecule, the inhibition at 1000 µM in data set [5] (Cavia porcellus, 10^-3 M, read-out: Percentage of inhibition of the histaminic spasm due to relaxation of the smooth tracheal muscles) was found to be 29.2%. Besides, the “antibacterial activity compared with Fraction 2 and sobrerol (in words)” value in the data set with Staphylococcus aureus is “as active as Fraction 2 and more active than sobrerol”. Further, the “inhibition of thrombocyte aggregation compared with Fraction 2 and sobrerol (in words)” value in the data set with thrombocyte aggregation was “higher than that of the terpenes of the Fraction 2 and of sobrerol”. Besides, in the data set with thrombocyte aggregation, the inhibition at 160 µg/mL was 0%. The molecule further returned an inhibition at 320 µg/mL with thrombocyte aggregation of 6%. Moreover, the inhibition at 640 µg/mL with thrombocyte aggregation stood at 44%. This molecule also had an inhibition at 1280 µg/mL in the data set on thrombocyte aggregation of 100%. In addition, in the data set with red blood cells of rats (fiducial limits 95%: 518.0-760.11, read-out: effective concentration 50% (EC 50), protection from haemolysis), the EC50 came to 640 µg/mL (≈ 4.26 mM). In addition, the “Percentage of inhibition of the histamine-induced bronchospasm” value in the data set on rabbits [4] (setting [9]) is reported as 36.25%; with rabbits [4] (setting [10]), 46.27%; in the data set with rabbits [4] (setting [11]), 73.32%. The “inhibition of histamine-induced bronchospasm compared with Fraction 2 and sobrerol (in words)” value in the data set on rabbits [4] was “statistically higher than that of the terpenes of the fraction 2 and also than that of sobrerol”. Further, the “tolerability on the basis of acute toxicity data” value in the data set on mice (mice and rabbits, i.p. and p.o.) is “well tolerated”. The Gleason classification entry was “Poor” in the data set with mice (i.p.), “Slight” with mice (p.o.), “Poor” in the data set on rabbits [7] (i.p.) and “Poor” in the data set with rabbits [7] (p.o.). The LD50 in data set [6] (ip, female) was found to be 232 mg/kg; in data set [6] (ip, male), 310 mg/kg; in [6] (po, female), 655 mg/kg; in data set [6] (po, male), 790 mg/kg; in the data set “in vivo” (ip, female) it was 325 mg/kg; in “in vivo” (ip, male) it was 361 mg/kg. Moreover, the 50% lethal dose (LD50) in “in vivo” (po, female) is 1530 mg/kg; in “in vivo” (po, male), 1410 mg/kg.
